Experimental data: PMC10778758, “Dithioethanol (DTE)-Conjugated Deoxyribose Cyclic Dinucleotide Prodrugs (DTE-dCDNs) as STING Agonist” (International Journal of Molecular Sciences, 2023)

Experiments:
THP-1 cells [1] = experiment: RT-qPCR of cytokine mRNA levels in THP-1 cells; assay type: cell-based; details: 4 h
Protocol: Real-time quantitative PCR (RT-qPCR). The mRNA expression levels of diverse cytokines were measured using quantitative RT-PCR (RT-qPCR) assays. THP-1 cells or CT26 cells were incubated with the compounds for 4 h, subsequently harvested for RNA isolation according to the manufacturer’s instructions of RNApure Tissue&Cell Kit (DNase I) (CWBIO, Cambridge, MA, USA catalogue no. CW0560S). Next, 1 μg RNA was reversely transcribed to cDNA by TransScript All-in-One First-Strand cDNA Synthesis SuperMix for qPCR (One-Step gDNA Removal) (TransGen, Beijing, China). To examine the mRNA levels, real-time PCR was performed in a CFX96 Real-Time PCR system (Bio-RAD, Hercules, CA, USA) using PerfectStart Green qPCR Super Mix (TransGen) and primers (Sangon Biotech, Shanghai, China). The expression level was calculated according to the formula (2^−∆∆Ct) using the GAPDH or β-actin as the internal reference gene and the relative gene expression fold was normalized to the DMSO-treated cells. The THP-1 and CT26 cell lines were obtained from American Type Culture Collection (ATCC, Manassas, VA, USA).
Figure 7 Prodrug 9 improved the production of the type I interferons and proinflammatory cytokines in THP-1 cells. The mRNA expression levels of IFN-β (a), CXCL10 (b), IL-6 (c), and TNF-α (d) were assessed via real-time quantitative PCR (qPCR) under the treatment of prodrug 9 (10 μM), 3′,3′-c-di-dAMP (100 μM), 2′,3′-cGAMP (100 μM), and ADU-S100 (10 μM) for 4 h.

THP-1 cells [2] = experiment: CCK8 cell viability, THP-1 cells; assay type: cell-based; details: 10 μM, 24 h
Protocol: Cell viability of THP-1 and HEK293T cells. A total of 5 × 10^3 HEK293T cells or THP-1 cells were seeded in 96-well plates. […] Cell counting kit-8 (CCK8) (US EVERBRIGHT, Newport Beach, CA, USA, c6005) was then used to quantitatively assess the cell viability through the OD value at 450 nm. The HEK293T cell line was obtained from American Type Culture Collection (ATCC).
Figure 8 Cell viability of THP-1 and HEK293T cells stimulated by prodrug 9 and 2′,3′-cGAMP. (a) A total of 5 × 10^3 THP-1 cells or (b) HEK293T cells were seeded in 96-well plates. Cells were stimulated with prodrug 9 (10 μM), 3′,3′-c-di-dAMP (100 μM), and 2′,3′-cGAMP (100 μM) for 24 h. Then, cell counting kit-8 (CCK8) (US EVERBRIGHT, c6005) was used to quantitatively assess cell viability through the OD value at 450 nm. Data are presented as mean ± SD, n = 3.

THP-1 cells [3] = details: human, 10 μM
Protocol: Uptake of DTE-dCDN Prodrug. THP-1 cells were seeded at a concentration of 5 × 10^6 cells/mL into a 12-well plate. After 16 h of incubation at 37 °C in a 5% CO2 atmosphere, the compounds were added to cell cultures and the cells were collected at time points of 1 h, 2 h, 4 h, 6 h, 8 h, 12 h, and 24 h by centrifugation for 1 min at 1000× g. The media was removed completely, and the cells were washed twice with 800 μL of ice-cold PBS before being lysed with 400 μL ice-cold 70% methanol. Lysates were incubated overnight at −20 °C and then centrifuged for 20 min at 13,000× g to remove cellular debris. The supernatant was analyzed via LC/MS/MS (Agilent 1290 Infinity II/6470A)
(a) The intracellular concentration of the prodrug 9 in THP-1 cells. (b) The intracellular concentration of the parent dCDN (3′,3′-c-di-dAMP) in THP-1 cells. THP-1 cells were treated with 10 μM prodrug 9 or 100 μM parent dCDN (3′,3′-c-di-dAMP) for the indicated period of time (1, 2, 4, 6, 8, 12, 24 h), and the intracellular concentration of the metabolites in cellular extracts was determined with liquid chromatograph MS/MS analysis.

[4] = THP-1, prodrug 9 10 μM vs 2′,3′-cGAMP 100 μM
[5] = THP-1, prodrug 9 10 μM vs 3′,3′-c-di-dAMP 100 μM
[6] = THP-1, prodrug 9 10 μM vs ADU-S100 10 μM

Compound: Nc1ncnc2c1ncn2C1CC2OP(=O)(OCCSSc3ccccn3)OCC3OC(n4cnc5c(N)ncnc54)CC3OP(=O)(OCCSSc3ccccn3)OCC2O1 (centres unmarked) [prodrug 9]
- CXCL10 mRNA expression, fold compared to 2′,3′-cGAMP (THP-1 cells [1]; [4]): ~17 fold
- IFN-β mRNA expression, fold compared to 2′,3′-cGAMP (THP-1 cells [1]; [4]): approximately 40 fold
- IL-6 mRNA expression, fold compared to 2′,3′-cGAMP (THP-1 cells [1]; [4]): ~1.2 fold
- TNF-α mRNA expression, fold compared to 2′,3′-cGAMP (THP-1 cells [1]; [4]): ~46 fold
- CXCL10 mRNA expression, fold compared to 3′,3′-c-di-dAMP (THP-1 cells [1]; [5]): ~26 fold
- IFN-β mRNA expression, fold compared to 3′,3′-c-di-dAMP (THP-1 cells [1]; [5]): approximately 43 fold
- IL-6 mRNA expression, fold compared to 3′,3′-c-di-dAMP (THP-1 cells [1]; [5]): ~1.4 fold
- TNF-α mRNA expression, fold compared to 3′,3′-c-di-dAMP (THP-1 cells [1]; [5]): ~12 fold
- CXCL10 mRNA expression, fold higher than ADU-S100 (THP-1 cells [1]; [6]): 14 fold
- IFN-β mRNA expression, fold higher than ADU-S100 (THP-1 cells [1]; [6]): 14 fold
- IL-6 mRNA expression, fold higher than ADU-S100 (THP-1 cells [1]; [6]): 1.9 fold
- TNF-α mRNA expression, fold higher than ADU-S100 (THP-1 cells [1]; [6]): 15 fold
- cell viability (CCK8), THP-1 cells (THP-1 cells [2]): no significant influence on the growth
- time at which intracellular levels of prodrug 9 peaked (THP-1 cells [3]): 2 h
